Results published in ChEMBL document CHEMBL6103579, “Antiproliferative activity of selenium-enriched coumarin derivatives on the SK-N-SH neuroblastoma cell line: Mechanistic insights” (Eur J Med Chem, 2025).
Active and inactive are the calls of the source. No cut-off for these calls is given here.

Legend:
[1] = Toxicity in female ICR mouse assessed as change in organ coefficient of heart at 20 mg/kg, ip […] (reference value: 0.006+/-0.002); assay type: organism-based; settings: in vivo
[2] = Toxicity in female ICR mouse assessed as histomorphological changes in heart at 10 to 20 mg/kg, ip H and E staining based analysis; assay type: organism-based; settings: in vivo, dose 10-20 mg/kg
SK-N-SH [3] = test: Inhibition of cell migration in human SK-N-SH cells at 0.5 to 2 uM measured after 48 hrs by crystal violet staining based microscopic analysis; assay type: functional; settings: dose 0.5-2 µM
SK-N-SH [4] = test: Induction of mitochondrial dysfunction in human SK-N-SH cells assessed as appearance of fragmented mitochondria at 6 uM measured after 48 hrs by fluorescence microscopic analysis; assay type: functional, cell-based
[5] = Toxicity in female ICR mouse assessed as appearance of homogenous renal corpuscles in kidney at 10 to 20 mg/kg, ip H and E staining based analysis; assay type: organism-based; settings: in vivo, dose 10-20 mg/kg
[6] = Toxicity in female ICR mouse assessed as abnormal movement at 10 to 20 mg/kg, ip; assay type: organism-based; settings: in vivo, dose 10-20 mg/kg
[7] = Toxicity in female ICR mouse assessed as effect on body weight loss at 10 to 20 mg/kg, ip; assay type: organism-based; settings: in vivo, dose 10-20 mg/kg
SK-N-SH [8] = test: Antiproliferative activity against human SK-N-SH cells assessed as reduction in cell proliferation at 1 uM incubated for 60 hrs by CCK-8 method relative to control; assay type: functional; set-up: scale not given: the % may be the effect or the level left
N2a [9] = test: Antitumor activity against mouse N2a cells implanted in female ICR mouse model assessed as suppression of tumor cell proliferation administered as ip dose measured upto 8 days by Ki67 staining based analysis; assay type: functional, organism-based; settings: dose 10-20 mg/kg, time <= 8.0 day
SK-N-SH [10] = test: Upregulation of Bax/[…] ratio in human SK-N-SH cells at 3 to 9 uM measured after 48 hrs by Western blot analysis; assay type: functional, cell-based; settings: dose 3-9 µM
[11] = Toxicity in female ICR mouse assessed as change in organ coefficient of heart at 10 mg/kg, ip […] (reference value: 0.006+/-0.002); assay type: organism-based; settings: in vivo
[12] = Antiproliferative activity against human Neuroblastoma cell assessed as inhibition of cell growth incubated for 60 hrs by CCK-8 method; assay type: functional, cell-based
SK-N-SH [13] = test: Induction of mitochondrial dysfunction in human SK-N-SH cells assessed as appearance of blurred mitochondria at 6 uM measured after 48 hrs by fluorescence microscopic analysis; assay type: functional, cell-based
SK-N-SH [14] = test: Upregulation of Bax expression in human SK-N-SH cells at 3 to 9 uM measured after 48 hrs by Western blot analysis; assay type: functional, cell-based; settings: dose 3-9 µM
SK-N-SH [15] = test: Inhibition of cell invasion in human SK-N-SH cells at 0.5 to 2 uM measured after 48 hrs by crystal violet staining based microscopic analysis; assay type: functional; settings: dose 0.5-2 µM
SK-N-SH [16] = test: Inhibition of cell migration in human SK-N-SH cells at 2 uM measured after 48 hrs by crystal violet staining based microscopic analysis relative to control; assay type: functional
[17] = Toxicity in female ICR mouse assessed as appearance of intact glomeruli in kidney at 10 to 20 mg/kg, ip H and E staining based analysis; assay type: organism-based; settings: in vivo, dose 10-20 mg/kg
N2a [18] = test: Antiproliferative activity against mouse N2a cells assessed as inhibition of cell growth incubated for 60 hrs by CCK-8 method; assay type: functional, cell-based
N2a [19] = test: Antitumor activity against mouse N2a cells implanted in female ICR mouse model assessed as reduction in cell nuclear size at 10 to 20 mg/kg, ip by H and E staining based analysis; assay type: functional, organism-based; settings: dose 10-20 mg/kg
N2a [20] = test: Antitumor activity against mouse N2a cells implanted in female ICR mouse model assessed as change in body weight at 10 mg/kg, ip measured upto 8 days (reference value: 25.54 +/-2.19 g); assay type: functional; settings: time <= 8 day
[21] = Toxicity in female ICR mouse assessed as change in organ coefficient of kidney at 10 mg/kg, ip […] (reference value: 0.007); assay type: organism-based; settings: in vivo
[22] = Toxicity in female ICR mouse assessed as change in organ coefficient of spleen at 20 mg/kg, ip […] (reference value: 0.006+/-0.002); assay type: organism-based; settings: in vivo
SK-N-SH [23] = test: Antiproliferative activity against human SK-N-SH cells assessed as reduction in cell proliferation at 2 uM incubated for 60 hrs by CCK-8 method relative to control; assay type: functional; set-up: scale not given: the % may be the effect or the level left
[24] = Toxicity in female ICR mouse assessed as hyperplasia in liver at 10 to 20 mg/kg, ip by H and E staining based analysis; assay type: organism-based; settings: in vivo, dose 10-20 mg/kg
[25] = Toxicity in female ICR mouse assessed as change in organ coefficient of liver at 20 mg/kg, ip […] (reference value: 0.058+/-0.010); assay type: organism-based; settings: in vivo
[26] = Toxicity in female ICR mouse assessed as change in organ coefficient of lung at 20 mg/kg, ip […] (reference value: 0.007+/-0.001); assay type: organism-based; settings: in vivo
SK-N-SH [27] = test: Induction of apoptosis in human SK-N-SH cells assessed as increase in apoptotic cells at 3 to 9 uM measured after 48 hrs by FITC and PI staining based flow cytometry analysis relative to control; assay type: functional; settings: dose 3-9 µM
SK-N-SH [28] = test: (§1) Upregulation of E-cadherin expression in human SK-N-SH cells measured after 48 hrs by Western blot analysis relative to control; assay type: functional; settings: dose 3-9 µM
[29] = as §1; assay type: functional; settings: dose 3-9 µM, at 3 to 9 µM
SK-N-SH [30] = test: Induction of apoptosis in human SK-N-SH cells assessed as increase in apoptotic cells measured after 48 hrs by FITC and PI staining based flow cytometry analysis; assay type: functional, cell-based; settings: dose 3-9 µM
[31] = Toxicity in female ICR mouse assessed as change in organ coefficient of lung at 10 mg/kg, ip […] (reference value: 0.007+/-0.001); assay type: organism-based; settings: in vivo

N#C[Se]CCCOc1ccc2cc(C(=O)N3N=C(c4ccc(F)cc4)CC3c3ccc(F)cc3)c(=O)oc2c1 (stereo unspecified)
Activity [1]: 0.005 | Activity [2]: Non-toxic | inhibition (SK-N-SH [3]): Active | Activity (SK-N-SH [4]): Active | Activity [5]: Non-toxic | Activity [6]: Non-toxic | Activity [7]: Non-toxic | Activity (SK-N-SH [8]): 63.8% | Activity (N2a [9]): Dose-dependent-effect | Activity (SK-N-SH [10]): Active | Activity [11]: 0.005 | IC50 [12]: 2.5 µM | Activity (SK-N-SH [13]): Active | Activity (SK-N-SH [14]): Active | inhibition (SK-N-SH [15]): Active | inhibition at 2 µM (SK-N-SH [16]): 83.2% | Activity [17]: Non-toxic | IC50 (N2a [18]): 17.9 µM | Activity (N2a [19]): Active | Activity (N2a [20]): 27.2 g | Activity [21]: 0.007 | Activity [22]: 0.005 | Activity (SK-N-SH [23]): 81.4% | Activity [24]: Non-toxic | Activity [25]: 0.059 | Activity [26]: 0.007 | Activity (SK-N-SH [27]): 47.4% | Activity (SK-N-SH [28]): Dose-dependent-effect | Activity [29]: 32.3% | Activity (SK-N-SH [30]): Dose-dependent-effect | Activity [31]: 0.007
